Assay results published in US20230331676A1, “NAPHTHYLUREA COMPOUND, METHODS OF PREPARATION AND USE THEREOF” (Henan Radiomedical Science and Technology Co., Ltd., priority 2021, published 2023).

Tests used:
Format in all cases: cell-based
[1] = tested on: tumor cells such as breast cancer (MDA-MB-468) and liver cancer (HepG2); assay: MTT assay, inhibition of tumor cell proliferation; settings: 48 h, compared with positive control WP1066, IC50 values only in FIG. 1
Description: Tumor cells in logarithmic growth phase were collected; the cell suspension was diluted to a density of 5×10^4 cells/mL; 100 uL of the cell suspension was transferred to each hole of a 96-well plate; DMSO was used as a solvent for negative control; (2E)-3-(6-bromo-2-pyridyl)-2-cyano-N-[(1S)-1-phenylethyl]-2-acrylamide (WP1066CAS: 857064-38-1, with a formula
was used as a positive control; the naphthylurea compounds IY210216D-1, ID210203C-1 and IY210316B-1 were diluted with DMSO and added into the 96-well plate to a final concentration of 0.1, 0.3, 1, 3, 10, 30, 100 and 300 μmol/L; the 96-well plate was incubated for 48 h; 10 μL of MTT solvent (5 mg/mL) was added into each well; the 96-well plate was incubated at 37° C. for 4 h; a culture supernatant was discarded; 150 μL of DMSO was added into each well; the 96-well plate was shaken for 10 min on a plate shaker; an optical density (OD) of the resulting product was measured at a wavelength of 490 nm by an ELISA reader. Test results were recorded. A cell growth curve was drawn with the dosage of each compound as abscissa and the absorbance value as ordinate. The statistical results of the half inhibition rate (IC50 value) of tumor cells by the compounds IY210216D-1, ID210203C-1 and IY210316B-1 were shown in FIG. 1.

[2] = tested on: JAK2/STAT3 signal axis in MDA-MB-468 or HepG2 cells; assay: Western blot of JAK2/STAT3 signal axis protein expression; settings: MDA-MB-468 (0, 0.5, 1 μM) or HepG2 (0-8 μM), 48 h, vs solvent control; dose-dependent
Description: MDA-Mb-468 or HepG2 cells in logarithmic growth phase were inoculated in a 6-well plate, with 8×10^5 cells per well. After cell adhesion, the compound ID210203C-1 was added until a final concentration thereof was 0, 0.5, 1 or 0, 0.5, 1, 2, 4 and 8 μM respectively. After about 48 hours, the cells were lysed with RIPA lysate and proteins were collected for Western blot analysis. The protein expressions were respectively detected through the anti-JAK2, p-JAK2, STAT3, p-STAT3, CyclinD1, p-AKT, p-ERK and β-actin antibodies.

HepG2 cells [3] = assay: Cell cycle distribution by flow cytometry (PI), HepG2; settings: hepatoma cells (HepG2), 2, 4, 8 μM, 48 h, vs DMSO
Description: (§1) MDA-MB-468 or HepG2 cells were harvested during log phase, digested, centrifuged and prepared into a single cell suspension; the number of the cells in the single cell suspension was counted; the cells were seeded into a 12-well plate, with 2×10^5 cells per well; three wells were used as a parallel control design; 16 hours after seeding, the cells were treated with the compounds. With DMSO as a solvent, the final concentrations of the compounds IY210216D-1 and ID210203C-1 in HepG2 cell suspension were 0, 2, 4 and 8 μM, respectively, and the final concentrations of the compounds IY210216D-1 and ID210203C-1 in MDA-MB-468 cell suspension were 0 and 2 μM, respectively. 48 hours later, the cells were digested with trypsin and resuspended; the number of the cells in the cell suspension was counted and diluted to 5×10^5 cells/mL; after the digestion was completed, the cell suspension was centrifuged; the supernatant was discarded; the pellet was washed twice with PBS (each time the mixture was centrifuged 2000 rpm for 5 min); the supernatant was discarded; a fixative comprising 980 μL of 70% cold ethanol and 20 μL of 5% BSA (a small amount of BSA reduces cellular stress and damage) was added to each microcentrifuge tube, so that the cells were fixed overnight at 4° C.; the fixative is discarded; the cells were washed three times in PBS to remove residual fixative (each time the mixture was centrifuged at 1000 rpm for 3 min); a DNA quantification kit is used to measure the content of DNA according to the following instruction (Suo Laibao, Beijing): each sample was incubated in 100 μL of RNase A at 37° C. for 30 min; 500 μL of PI (propidium iodide) was added to each sample; each sample was incubated at room temperature for 30 min in the dark; the cell cycle was analyzed by a flow cytometry and a ModFit software; and Graphpad prism 6.0 was used to estimate the percentage of a cell population in the different phases of the cell cycle.

MDA-MB-468 cells [4] = assay: Cell cycle distribution by flow cytometry (PI), MDA-MB-468; settings: breast cancer cells (MDA-MB-468), 2 μM, 48 h, vs DMSO
Description: as §1

HepG2 cells [5] = assay: Apoptosis by Annexin V-FITC/PI flow cytometry, HepG2; settings: HepG2, 0, 2, 4, 8 μM, 48 h, vs control group
Description: (§2) The MDA-MB-468 or HepG2 cells were harvested during log phase, digested, centrifuged and prepared into a single cell suspension; the number of the cells in the cell suspension was counted; the cells were seeded into a 12-well plate, with 2×10^5 cells per well; three wells were used as a parallel control design; 16 hours after seeding, the cells were treated with the compounds.
(§3) With DMSO as a solvent, the final concentrations of the compounds IY210216D-1 and ID210203C-1 in HepG2 cell suspension were 0, 2, 4 and 8 μM, respectively, and the final concentrations of the compound IY210316B-1 in MDA-MB-468 cell suspension were 0 and 0.12 μM, respectively. […]

HepG2 liver cancer cells = assay: Q-PCR of mRNA level of cell cycle and metastasis related molecules; settings: HepG2, 4 μM, 24 hours; for down-regulation of Cyclin B1 (CCNB1) mRNA level / down-regulation of Cyclin D1 (CCND1) mRNA level: relative to actin gene
Description: HepG2 liver cancer cells were seeded in a 6-well plate, with 1×10^6 cells per well, and treated with the compounds IY210216D-1 and ID210203C-1 (in 0 and 4 μM concentrations) for 24 h; total RNA was extracted from the HepG2 liver cancer cells by a single-step TRIzol method; the concentration and purity of the total RNA was measured; the total RNA was used as a template; and complementary DNA (cDNA) was synthesized from the RNA template according to the instruction of a reverse transcription kit (Promega); sqRT-PCR and qPCR were used to quantify the expression of the genes CCNB1, CDK1 and SQSTM; and the gene ACTB was used as an internal reference gene for gene expression normalization.
A20 μL reaction mix for qPCR contained: • 2 μL of cDNA; • 10 μL of 2×SYBR Green Supermix; • 1 μL of upstream and downstream primers; • 0.3 μL of reference dye; • 6.7 μL of water. • Each sample has three technical replicates. • Cycling conditions comprised: • pre-denaturation at 95° C. for 5 min; • denaturation at 95° C. for 15 sec; • annealing at 60° C. for 15 sec; and • extension at 72° C. for 30 sec.
After 40 cycles, the cycle […] (CT) value of the […] gene was used as an initial value in comparison with the amount of the amplified product.

MDA-MB-468 cells [6] = assay: Apoptosis by Annexin V-FITC/PI flow cytometry, MDA-MB-468
Description: as §2, §3

SMILES | inhibitory effect on the proliferation of tumor cells [1] | expression level of CyclinD1 [2] | expression level of p-JAK2 [2] | expression level of p-STAT3 [2] | G1 phase ratio (HepG2 cells [3]) | G2 phase ratio (HepG2 cells [3]) | G1 phase ratio (MDA-MB-468 cells [4]) | S phase ratio (MDA-MB-468 cells [4]) | induction of apoptosis (HepG2 cells [5]) | expression of MMP9 at mRNA level (HepG2 liver cancer cells) | down-regulation of Cyclin B1 (CCNB1) mRNA level (HepG2 liver cancer cells) | down-regulation of Cyclin D1 (CCND1) mRNA level (HepG2 liver cancer cells) | apoptosis of breast cancer cells (MDA-MB-468 cells [6]; 0.12 μM, 48 hours) | induction of apoptosis (MDA-MB-468 cells [6]; MDA-MB-468, 0 and 0.12 μM, 48 h, vs control group)
O=C(NCc1ccncc1)Nc1ccc(OCc2ccc(OCCN3CCCCC3)cc2)c2ccccc12 [ID210203C-1] | good inhibitory effects | significantly inhibit | significantly inhibit | significantly inhibit | significant decrease | significant increase | decrease | significant increase | increased apoptosis in a dose-dependent manner | down-regulating | ~10 folds | ~10 folds | – | –
O=C(NCc1ccccn1)Nc1ccc(OCc2ccc(OCCN3CCCCC3)cc2)c2ccccc12 [IY210316B-1, 1-(4-((4-(2-(piperidin-1-yl)ethoxy)benzyl)oxy)naphthalen-1-yl)-3-(pyridin-2-ylmethyl)urea] | good inhibitory effects | – | – | – | – | – | – | – | – | – | – | – | 43.86% | increased apoptosis in a dose-dependent manner
O=C(Nc1ccc(OCc2ccc(OCCN3CCCCC3)cc2)c2ccccc12)NC1CCOCC1 [IY210216D-1] | good inhibitory effects | – | – | – | significant decrease | significant increase | decrease | significant increase | increased apoptosis in a dose-dependent manner | down-regulating | ~10 folds | ~10 folds | – | –
